Reference: US20200277404A1, “COMPOSITIONS AND METHODS FOR REGULATION OF IMMUNE CELL ACTIVATION AND PROLIFERATION” (MONELL CHEMICAL SENSES CENTER, priority 2017, published 2020)

Test system: bitter receptors (T2Rs)
Assay: Expression of bitter receptors (T2Rs) in Raw264.7 cells treated with LPS or DEX
Format: cell-based
Conditions: mouse monocyte/macrophage Raw264.7 cell line, FIG. 4
Method: The mouse monocyte/macrophage Raw264.7 cell line was also used to study T2Rs. Raw264.7 cells were treated with lipopolysaccharide (LPS) and dexamethasone (DEX).

Question: With lipopolysaccharide [LPS] as the substance, how does the “expression levels of some bitter receptors (T2Rs)” value read?
Answer: Its value is “strongly induced”.
